Measured values: paper PMC5484114 (Marine Drugs, 2017)
Where a SMILES comes first, the peptide text is derived from it. Bridges are numbered along the chain shown (N, C = ends). Roman numbers before positions name the chains, in order.

What was measured:
hα9α10 nAChR = hα9α10 nAChR (Homo sapiens, UniProt Q9GZZ6+Q9UGM1); assay: cell-based; type: cell-based
hα3β2 nAChR = type: cell-based, human
hα4β2 nAChR = type: cell-based, human
hα3β4 nAChR = type: cell-based, human
hα4β4 nAChR = type: cell-based, human
hα7 nAChR = type: cell-based, human
nAChR subtypes = type: cell-based, human; rodent

Sequence of hα9α10 nAChR (Q9UGM1 26-479 limits assumed): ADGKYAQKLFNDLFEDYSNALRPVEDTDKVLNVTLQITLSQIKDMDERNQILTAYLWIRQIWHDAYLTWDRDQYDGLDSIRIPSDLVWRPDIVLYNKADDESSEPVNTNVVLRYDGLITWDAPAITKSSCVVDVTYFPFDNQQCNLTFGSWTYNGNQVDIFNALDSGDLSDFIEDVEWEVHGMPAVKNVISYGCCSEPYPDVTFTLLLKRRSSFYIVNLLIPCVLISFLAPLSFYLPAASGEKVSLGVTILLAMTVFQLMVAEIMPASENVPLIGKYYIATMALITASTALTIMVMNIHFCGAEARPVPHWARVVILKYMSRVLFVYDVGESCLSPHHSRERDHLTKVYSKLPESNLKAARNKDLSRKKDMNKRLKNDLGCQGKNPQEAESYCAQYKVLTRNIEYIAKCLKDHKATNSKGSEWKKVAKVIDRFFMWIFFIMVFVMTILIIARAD
Sequence of hα9α10 nAChR (Q9GZZ6 25-450 limits assumed): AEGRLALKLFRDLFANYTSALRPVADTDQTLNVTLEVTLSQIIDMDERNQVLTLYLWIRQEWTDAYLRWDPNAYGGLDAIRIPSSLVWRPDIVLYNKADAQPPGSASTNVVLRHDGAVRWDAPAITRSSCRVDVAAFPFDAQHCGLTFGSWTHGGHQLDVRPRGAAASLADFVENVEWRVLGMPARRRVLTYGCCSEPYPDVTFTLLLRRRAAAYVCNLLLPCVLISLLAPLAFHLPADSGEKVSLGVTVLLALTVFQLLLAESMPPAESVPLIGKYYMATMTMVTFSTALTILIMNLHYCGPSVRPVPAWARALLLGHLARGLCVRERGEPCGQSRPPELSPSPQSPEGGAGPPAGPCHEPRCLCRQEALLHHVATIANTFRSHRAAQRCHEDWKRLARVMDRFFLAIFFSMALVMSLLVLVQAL

Row | SMILES | Hill Slope (nH) at hα9α10 (hα9α10 nAChR) | reduction of ACh-evoked current amplitude at hα3β2 (hα3β2 nAChR) | reduction of ACh-evoked current amplitude at hα4β2 (hα4β2 nAChR) | effect on ACh-evoked currents of hα3β4 (hα3β4 nAChR) | effect on ACh-evoked currents of hα4β4 (hα4β4 nAChR) | effect on ACh-evoked currents of hα7 (hα7 nAChR) | nAChR subtype preference (nAChR subtypes) | IC50 (hα9α10 nAChR)
1 | CC(C)C[C@H](NC(=O)[C@H](CO)NC(=O)[C@@H]1CSSC[C@H](NC(=O)[C@@H]2CCCN2C(=O)[C@H](CCCNC(=N)N)NC(=O)[C@H](Cc2c[nH]cn2)NC(=O)[C@@H](NC(=O)[C@@H](N)CC(=O)O)C(C)C)C(=O)N[C@@H](CCC(N)=O)C(=O)N[C@@H](CO)C(=O)N[C@@H](C(C)C)C(=O)N[C@@H](CCCNC(=N)N)C(=O)N2CCC[C@H]2C(=O)NCC(=O)N[C@@H](CCCNC(=N)N)C(=O)N[C@@H](C(C)C)C(=O)N[C@@H](Cc2c[nH]c3ccccc23)C(=O)NCC(=O)N[C@@H](CCCCN)C(=O)N[C@H](C(=O)N[C@@H](CO)C(=O)N[C@@H](CC(C)C)C(=O)O)CSSC[C@H](NC(=O)[C@@H]2CCCN2C(=O)[C@H](CCCNC(=N)N)NC(=O)[C@H](Cc2c[nH]cn2)NC(=O)[C@@H](NC(=O)[C@@H](N)CC(=O)O)C(C)C)C(=O)N[C@@H](CCC(N)=O)C(=O)N[C@@H](CO)C(=O)N[C@@H](C(C)C)C(=O)N[C@@H](CCCNC(=N)N)C(=O)N2CCC[C@H]2C(=O)NCC(=O)N[C@@H](CCCNC(=N)N)C(=O)N[C@@H](C(C)C)C(=O)N[C@@H](Cc2c[nH]c3ccccc23)C(=O)NCC(=O)N[C@@H](CCCCN)C(=O)N1)C(=O)O [NTD] (I: H-DVHRPCQSVRPGRVWGKCSL-OH / II: H-DVHRPCQSVRPGRVWGKCSL-OH; disulfide I:6-II:18, I:18-II:6) | −0.9 | approximately 50% | approximately 50% | not markedly affected | not markedly affected | not markedly affected | prefers β2-containing rather than β4-containing nAChR subtypes | –
2 | CC(C)[C@@H]1NC(=O)[C@H](CCCNC(=N)N)NC(=O)CNC(=O)[C@@H]2CCCN2C(=O)[C@H](CCCNC(=N)N)NC(=O)[C@H](C(C)C)NC(=O)[C@H](CO)NC(=O)[C@H](CCC(N)=O)NC(=O)[C@@H](N)CSSC[C@@H](C(=O)O)NC(=O)[C@H](CCCCN)NC(=O)CNC(=O)[C@H](Cc2c[nH]c3ccccc23)NC(=O)[C@H](C(C)C)NC(=O)[C@H](CCCNC(=N)N)NC(=O)CNC(=O)[C@@H]2CCCN2C(=O)[C@H](CCCNC(=N)N)NC(=O)[C@H](C(C)C)NC(=O)[C@H](CO)NC(=O)[C@H](CCC(N)=O)NC(=O)[C@@H]2CCCN2C(=O)CNC(=O)[C@@H]2CCCN2C(=O)[C@H](CCCCN)NC(=O)CNC(=O)[C@H](Cc2c[nH]c3ccccc23)NC1=O [cNTD] (H-CQSVRPGRVWGKPGPQSVRPGRVWGKC-OH; disulfide 1-27) | – | – | – | – | – | – | – | 2660 nM
